Laboratory results taken from article PMC9412534, “Diindolylmethane Derivatives: New Selective Blockers for T-Type Calcium Channels” (Membranes, 2022).
“Also recorded” adds a separate entry of the source. Read-outs that look alike come from different tables or passages of the source.

Key:
CaV3.3 = CaV3.3 (Homo sapiens, UniProt Q9P0X4); assay: T-type calcium channel window current FLIPR assay, CaV3.3; format: cell-based
Procedure: (§1) The human embryonic kidney 293 (HEK 293) cell lines (from Emmanuel Bourinet, Montpellier, France) stably expressing CaV3.2 or CaV3.3 were cultured under 5% carbon dioxide at 37 °C in Dulbecco’s Modified Eagle Medium (DMEM) Glutamax (Gibco, Life Technologies, Carlsbad, CA, USA) supplemented with 10% (v/v) fetal bovine serum (FBS), 100 U/mL penicillin, 100 μg/mL streptomycin (Gibco, Life Technologies, Carlsbad, CA, USA), and 750 μg/mL geneticin (G418) (Gibco, Life Technologies). The Chinese Hamster Ovary (CHO) cell lines (Emmanuel Bourinet, Montpellier, France) expressing CaV3.1 were cultured under 5% carbon dioxide at 37 °C in Alpha Minimum Essential Media (MEM) Glutamax (Gibco, Life Technologies), supplemented with 10% (v/v) fetal bovine serum (FBS) and 300 μg/mL geneticin (G418) (Gibco, Life Technologies). The human neuroblastoma SH-SY5Y cells (Victor Diaz, Goettingen, Germany) were cultured under 5% carbon dioxide at 37 °C in RPMI 1640 antibiotic-free medium (Invitrogen, Carlsbad, CA, USA), supplemented with 15% FBS and 2 mM GlutaMAX™ (Invitrogen). D-PBS (Gibco, Life Technologies) was used to wash the cells, and 0.25% Trypsin-EDTA (Gibco, Life Technologies) was used to detach cells from the flask surface. They were split in a ratio of 1:5 (ideally 1000 cells/cm^2) when they reached 70–80% confluence (every 2–3 days). Transiently transfected CaV3.1 HEK293 T cells were used in FLIPR Assays. HEK 293 T cells were cultured under 5% carbon dioxide at 37 °C in DMEM supplemented with 10% (v/v) FBS. D-PBS was used to wash the cells, and 0.25% Trypsin-EDTA was used to detach cells from the flask surface. The cells were split and seeded at 6 million cells per T175 flask, to reach 70–80% confluence after 24 h. The next day, 12 μg DNA of human CaV3.1 was incubated in 900 μL serum-free DMEM with 36 μL FuGENE HD transfection reagent (Promega Corporation, Madison, WI, USA) (1:3 DNA/Fugene ratio) for 20 min, and then the mixture was added into the cell flask slowly, drop by drop. After the transfection, the cells were cultured under 5% carbon dioxide at 37 °C for 24 h and then moved to a 28 °C incubator.
HEK 293 cells stably expressing CaV3.2 or CaV3.3 were seeded into 384-well black wall clear bottom plates (Corning) at a density of 30,000 cells per well. Transiently transfected CaV3.1HEK293 T cells were seeded into 384-well black wall clear bottom plates at a density of 60,000 cells per well. Once the cells reached 90–95% confluence after 24 h, the media were removed from the wells and replaced with 20 μL of 10% calcium 4 dye (Molecular Devices, Sunnyvale, CA, USA) in HBSS-HEPES (containing 5 mM KCl, 10 mM HEPES, 140 mM NaCl, 10 mM glucose, and 0.5 mM CaCl2, pH 7.4) with 0.1% bovine serum albumin (BSA). The cells were incubated for 30 min at 37 °C in the presence of 5% carbon dioxide. Each well on the reagent plates for the first addition contained 15 μL different concentrations of compounds dissolved in HBSS-HEPES containing 0.1% BSA and <0.5% DMSO and was incubated for 20 min after loaded. Positive and negative controls contained 15 μL of HBSS-HEPES (0.1% BSA) alone. The plates were placed in the FLIPR^TETRA (Molecular Devices, Sunnyvale, CA, USA) programmed to measure maximum fluorescence intensity following a second addition of the agonist 5 mM CaCl2. The fluorescence readings were recorded and converted as described previously, and HBSS-HEPES (0.1% BSA) was used in the second addition as a negative control.

[1] = molecular target: T1, recombinant hCaV3.2 channels (Homo sapiens, UniProt O95180); assay: Whole-cell patch-clamp (QPatch), CaV3.2; format: cell-based; conditions: for extent of block of CaV3.2 whole-cell inward Ca2+ current: QPatch; for IC50: whole-cell current, holding potential −90 mV, n = 3–5
T1 construct: the only CaV3.2-expressing cells described
Procedure: as §1
Whole-cell patch-clamp experiments were performed on an automated electrophysiology platform QPatch 16 X (Sophion Bioscience A/S, Ballerup, Denmark) in single-hole configuration using 16-channel planar patch chip QPlates (Sophion Bioscience A/S). The extracellular recording solution contained, in mM: TEACl 157, MgCl2 0.5, CaCl2 5, and HEPES 10; pH 7.4 adjusted with TEAOH; and osmolarity 320 mOsm. The intracellular pipette solution contained, in mM: CsF 140, EGTA 1, HEPES 10, and NaCl 10; pH 7.2 adjusted with CsOH; and osmolarity 325 mOsm. Compounds were diluted in extracellular recording solution with 0.1% BSA at the concentrations stated (DMSO ≤ 0.1%), and the effects of compounds were compared to the control (extracellular solution with 0.1% BSA) parameters within the same cell. Compounds’ incubation time varied from two (for the highest concentration) to five (for the lowest concentration) minutes by applying the voltage protocol 10–30 times at 10 s intervals to ensure steady-state inhibition was achieved. The effects of compounds were obtained using 200 ms voltage steps to peak potential from a holding potential of −90 mV. Current–voltage (I–V) relationships were obtained by holding the cells at a potential of −100 mV before applying 50 ms pulses to potentials from −75 to +50 mV every 5 s in 5 mV increments. […]

MCF-7 cells = assay: Cell viability MTT assay, MCF-7; format: cell-based, human; conditions: for viability at 50 µM: MCF7, 50 µM, n = 4; for IC50: n = 3
Procedure: Human breast cancer cell line MCF-7 and T-47D, lung cancer cell line A549, and colon cancer cell line HT-29 were cultured under 5% carbon dioxide at 37 °C in DMEM Glutamax (Gibco, Life Technologies) supplemented with 10% (v/v) FBS. They were split in a ratio of 1:3–1:6 (ideally 2–4 × 10,000 cells/cm^2) when they reached 70–80% confluence using 0.25% Trypsin-EDTA. For cell viability MTT assay, cells were seeded into 96-well clear bottom culture plates (Corning, Lowell, MA, USA) at a density of 5 × 10^3 cells/well and settled at 37 °C for 24 h.
Seeded cells were treated with various concentrations of compounds for desired time period (24, 48 and 72 h). After the treatments, the media were removed from each well, and replaced with 25 μL of serum-free media and 25 μL of MTT Reagent (cat. no., ab211091; Abcam, Cambridge, MA, USA). The plate was then incubated at 37 °C for 3 h, and 75 μL of MTT Solvent (cat. no., ab211091; Abcam) was added into each well after incubation. The absorbance was evaluated at 590 nm. Cell-wells treated with 0.1% DMSO were used as positive control and no cell-wells were used as background control.

[2] = FLIPR window current, n = 3, read-out: IC50 CaV3.3 (LVA CaVs)
[3] = FLIPR, one separate experiment in quadruplicate (n = 4), read-out: IC50 of representative concentration-response curve, CaV3.3 window current
[4] = Homo sapiens, MCF7, 72 h, 72 h treatment

CaV3.3, sequence (Q9P0X4 whole entry): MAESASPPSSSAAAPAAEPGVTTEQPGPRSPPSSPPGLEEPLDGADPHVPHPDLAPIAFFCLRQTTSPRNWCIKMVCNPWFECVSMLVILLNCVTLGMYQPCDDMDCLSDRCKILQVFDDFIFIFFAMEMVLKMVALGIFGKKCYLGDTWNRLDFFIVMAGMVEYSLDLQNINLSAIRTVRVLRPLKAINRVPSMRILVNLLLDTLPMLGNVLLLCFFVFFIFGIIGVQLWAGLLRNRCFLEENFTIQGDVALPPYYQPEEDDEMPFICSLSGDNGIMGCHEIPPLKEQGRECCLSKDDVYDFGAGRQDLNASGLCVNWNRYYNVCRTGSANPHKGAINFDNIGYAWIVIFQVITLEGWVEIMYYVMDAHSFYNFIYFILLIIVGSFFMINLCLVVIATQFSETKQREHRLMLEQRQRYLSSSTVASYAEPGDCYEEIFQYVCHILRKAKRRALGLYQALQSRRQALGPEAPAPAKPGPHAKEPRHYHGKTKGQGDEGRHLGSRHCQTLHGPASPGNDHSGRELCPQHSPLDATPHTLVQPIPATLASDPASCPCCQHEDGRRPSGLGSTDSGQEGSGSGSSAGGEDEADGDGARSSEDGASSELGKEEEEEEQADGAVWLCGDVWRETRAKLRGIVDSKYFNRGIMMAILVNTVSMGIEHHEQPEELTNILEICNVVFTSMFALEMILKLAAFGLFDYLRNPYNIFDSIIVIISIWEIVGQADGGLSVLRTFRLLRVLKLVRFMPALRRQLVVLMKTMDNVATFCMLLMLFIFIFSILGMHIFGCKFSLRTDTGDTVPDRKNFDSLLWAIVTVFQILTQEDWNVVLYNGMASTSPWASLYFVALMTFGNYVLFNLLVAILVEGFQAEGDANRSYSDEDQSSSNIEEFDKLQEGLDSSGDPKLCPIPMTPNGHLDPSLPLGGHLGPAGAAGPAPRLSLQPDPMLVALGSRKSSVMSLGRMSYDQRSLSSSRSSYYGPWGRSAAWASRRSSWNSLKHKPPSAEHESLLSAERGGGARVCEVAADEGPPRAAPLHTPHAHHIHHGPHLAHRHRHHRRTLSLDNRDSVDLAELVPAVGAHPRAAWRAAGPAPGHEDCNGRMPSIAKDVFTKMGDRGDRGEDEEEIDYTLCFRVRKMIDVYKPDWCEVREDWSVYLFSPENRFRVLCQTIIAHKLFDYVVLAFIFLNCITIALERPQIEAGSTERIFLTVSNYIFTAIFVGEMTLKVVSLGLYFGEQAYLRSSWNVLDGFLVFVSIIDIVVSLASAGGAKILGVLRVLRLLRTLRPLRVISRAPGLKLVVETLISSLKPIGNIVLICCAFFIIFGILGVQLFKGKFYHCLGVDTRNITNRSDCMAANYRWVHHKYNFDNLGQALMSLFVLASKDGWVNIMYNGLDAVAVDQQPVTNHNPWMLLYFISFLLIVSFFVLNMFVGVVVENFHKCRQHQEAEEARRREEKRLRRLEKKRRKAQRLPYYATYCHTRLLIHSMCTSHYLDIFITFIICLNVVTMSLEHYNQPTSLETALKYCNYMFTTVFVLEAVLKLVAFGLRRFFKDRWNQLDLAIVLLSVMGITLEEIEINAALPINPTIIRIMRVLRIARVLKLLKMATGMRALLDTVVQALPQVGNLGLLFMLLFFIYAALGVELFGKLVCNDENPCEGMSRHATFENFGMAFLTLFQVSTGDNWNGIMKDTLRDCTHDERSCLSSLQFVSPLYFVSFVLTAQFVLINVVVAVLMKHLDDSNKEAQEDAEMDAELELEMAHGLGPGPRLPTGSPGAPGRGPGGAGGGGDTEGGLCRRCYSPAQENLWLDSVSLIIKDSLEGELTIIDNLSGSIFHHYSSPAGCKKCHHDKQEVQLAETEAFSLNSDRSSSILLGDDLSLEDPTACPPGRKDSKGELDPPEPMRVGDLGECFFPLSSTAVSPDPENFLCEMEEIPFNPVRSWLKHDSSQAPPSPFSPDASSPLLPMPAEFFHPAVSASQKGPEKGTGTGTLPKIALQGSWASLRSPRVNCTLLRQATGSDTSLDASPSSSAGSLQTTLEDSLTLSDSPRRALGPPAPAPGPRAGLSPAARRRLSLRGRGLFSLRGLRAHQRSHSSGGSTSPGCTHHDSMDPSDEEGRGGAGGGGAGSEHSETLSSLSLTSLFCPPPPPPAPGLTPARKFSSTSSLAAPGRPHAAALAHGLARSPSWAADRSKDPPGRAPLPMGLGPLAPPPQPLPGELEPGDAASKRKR
T1 sequence (O95180 whole entry): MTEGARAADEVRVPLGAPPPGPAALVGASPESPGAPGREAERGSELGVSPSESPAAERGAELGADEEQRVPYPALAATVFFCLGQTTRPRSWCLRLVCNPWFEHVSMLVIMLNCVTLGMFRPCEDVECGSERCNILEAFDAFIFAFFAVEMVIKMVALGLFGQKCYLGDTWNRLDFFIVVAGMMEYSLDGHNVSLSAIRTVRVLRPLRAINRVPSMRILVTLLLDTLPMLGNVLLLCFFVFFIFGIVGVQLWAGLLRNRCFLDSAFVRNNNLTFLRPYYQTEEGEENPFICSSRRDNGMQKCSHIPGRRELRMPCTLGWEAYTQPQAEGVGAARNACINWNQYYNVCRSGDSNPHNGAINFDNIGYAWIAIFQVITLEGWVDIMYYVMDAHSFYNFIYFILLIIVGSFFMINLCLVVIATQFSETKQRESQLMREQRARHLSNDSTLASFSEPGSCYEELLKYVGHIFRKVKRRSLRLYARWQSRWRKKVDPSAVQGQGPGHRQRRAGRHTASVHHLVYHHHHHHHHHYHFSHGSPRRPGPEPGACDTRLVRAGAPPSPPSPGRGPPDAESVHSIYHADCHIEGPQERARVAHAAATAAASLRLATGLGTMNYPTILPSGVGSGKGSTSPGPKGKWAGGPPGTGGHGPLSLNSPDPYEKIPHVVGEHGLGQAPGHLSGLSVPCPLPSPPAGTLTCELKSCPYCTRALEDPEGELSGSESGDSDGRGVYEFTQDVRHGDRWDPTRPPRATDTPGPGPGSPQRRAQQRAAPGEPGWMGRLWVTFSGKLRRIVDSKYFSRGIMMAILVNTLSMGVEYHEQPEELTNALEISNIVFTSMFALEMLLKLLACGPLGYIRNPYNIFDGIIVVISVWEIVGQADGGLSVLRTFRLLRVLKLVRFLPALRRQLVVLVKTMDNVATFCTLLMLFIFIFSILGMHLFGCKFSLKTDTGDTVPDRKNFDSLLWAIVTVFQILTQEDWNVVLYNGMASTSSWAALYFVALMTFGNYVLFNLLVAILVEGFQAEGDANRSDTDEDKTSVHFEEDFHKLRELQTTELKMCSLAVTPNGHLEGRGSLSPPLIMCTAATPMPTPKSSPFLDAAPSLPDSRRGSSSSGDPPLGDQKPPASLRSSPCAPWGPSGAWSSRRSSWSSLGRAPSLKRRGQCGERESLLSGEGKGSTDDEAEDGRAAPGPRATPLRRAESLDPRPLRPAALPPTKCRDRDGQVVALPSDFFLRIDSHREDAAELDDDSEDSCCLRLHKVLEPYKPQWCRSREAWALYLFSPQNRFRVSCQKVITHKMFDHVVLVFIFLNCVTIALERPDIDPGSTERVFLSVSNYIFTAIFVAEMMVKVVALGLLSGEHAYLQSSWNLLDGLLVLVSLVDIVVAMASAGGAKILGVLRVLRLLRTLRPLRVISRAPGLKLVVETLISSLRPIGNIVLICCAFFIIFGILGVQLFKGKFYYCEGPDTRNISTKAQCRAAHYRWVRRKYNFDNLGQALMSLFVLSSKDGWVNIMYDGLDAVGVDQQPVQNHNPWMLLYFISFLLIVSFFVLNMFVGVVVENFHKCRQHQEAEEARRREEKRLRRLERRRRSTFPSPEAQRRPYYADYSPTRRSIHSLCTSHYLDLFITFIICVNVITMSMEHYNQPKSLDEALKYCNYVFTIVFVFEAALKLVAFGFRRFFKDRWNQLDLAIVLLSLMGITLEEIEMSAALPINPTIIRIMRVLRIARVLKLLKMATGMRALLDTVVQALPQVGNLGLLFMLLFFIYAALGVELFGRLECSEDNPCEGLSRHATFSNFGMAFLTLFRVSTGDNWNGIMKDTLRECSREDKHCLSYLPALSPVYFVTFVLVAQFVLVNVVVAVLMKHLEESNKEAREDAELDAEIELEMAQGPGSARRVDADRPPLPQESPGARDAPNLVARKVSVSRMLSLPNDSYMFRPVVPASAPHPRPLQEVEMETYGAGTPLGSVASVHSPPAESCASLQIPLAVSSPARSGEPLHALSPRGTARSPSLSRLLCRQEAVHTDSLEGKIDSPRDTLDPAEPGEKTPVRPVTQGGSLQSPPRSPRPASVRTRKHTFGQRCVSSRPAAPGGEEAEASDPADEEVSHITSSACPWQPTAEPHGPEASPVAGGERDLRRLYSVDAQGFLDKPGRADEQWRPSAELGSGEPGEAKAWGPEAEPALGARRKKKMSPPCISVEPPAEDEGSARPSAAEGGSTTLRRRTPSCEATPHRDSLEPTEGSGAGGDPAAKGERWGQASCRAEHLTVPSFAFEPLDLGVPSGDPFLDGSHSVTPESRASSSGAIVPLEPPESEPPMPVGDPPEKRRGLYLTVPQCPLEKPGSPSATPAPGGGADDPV

IC50 [1] | reduced potency for CaV3.3 window current compared to DIM (CaV3.3; FLIPR) | IC50 (CaV3.3; [2]) | IC50 (CaV3.3; [3]) | IC50 (MCF-7 cells; [4]) | IC50 (MCF-7 cells; 72 h treatment) | IC50 (MCF-7 cells; Homo sapiens, MCF7, 24 h, 24 h treatment) | CaV3.3 window current potency better than at CaV3.1 and CaV3.2 (CaV3.3; FLIPR) | CaV3.3 window current potency better than potency at HVA CaVs (CaV3.3; FLIPR) | SMILES | less active at HVA CaVs than at CaV3.2 and CaV3.3 (CaV3.3; FLIPR) | IC50 (CaV3.3; IC50 CaV3.3 (LVA CaVs), FLIPR window current, n = 3) | IC50 (CaV3.3; IC50 of representative concentration-response curve, CaV3.3 window current, FLIPR, one separate experiment in quadruplicate (n = 4)) | extent of block of CaV3.2 whole-cell inward Ca2+ current [1] | viability at 50 µM (MCF-7 cells; Homo sapiens, 72 h treatment)
~50 µM | 4.3 fold | 9.07 ± 0.69 µM | 8.18 µM | 42 µM |  |  |  |  | O=C(c1c[nH]c2ccccc12)c1c[nH]c2ccccc12 [DIM-one, 3,3′-diindolylmethanone] |  |  |  | poor inhibition | 52.3 ± 3.12%
 |  | 62.5 ± 4.1 µM |  | 6 µM | 6.1 µM | 9.8 µM |  |  | O=C(c1c[nH]c2cc(Br)ccc12)c1c[nH]c2cc(Br)ccc12 [IV] |  |  |  |  | 6.35 ± 0.46%
21.1 ± 1.19 µM |  | 2.09 ± 0.43 µM | 2.77 µM | 27 µM |  |  | ~ 25 fold | > 27 fold | c1ccc2c(Cc3c[nH]c4ccccc34)c[nH]c2c1 [DIM, 3,3′-diindolylmethane, reference compound] |  |  |  |  | 3.65 ± 0.24%

SMILES | IC50 [1] | reduced potency for CaV3.3 window current compared to DIM (CaV3.3; FLIPR) | IC50 (CaV3.3; [2]) | IC50 (CaV3.3; [3]) | IC50 (MCF-7 cells; [4]) | IC50 (MCF-7 cells; 72 h treatment) | IC50 (MCF-7 cells; Homo sapiens, MCF7, 24 h, 24 h treatment) | CaV3.3 window current potency better than at CaV3.1 and CaV3.2 (CaV3.3; FLIPR) | CaV3.3 window current potency better than potency at HVA CaVs (CaV3.3; FLIPR) | less active at HVA CaVs than at CaV3.2 and CaV3.3 (CaV3.3; FLIPR) | IC50 (CaV3.3; IC50 CaV3.3 (LVA CaVs), FLIPR window current, n = 3) | IC50 (CaV3.3; IC50 of representative concentration-response curve, CaV3.3 window current, FLIPR, one separate experiment in quadruplicate (n = 4)) | extent of block of CaV3.2 whole-cell inward Ca2+ current [1] | viability at 50 µM (MCF-7 cells; Homo sapiens, 72 h treatment)
O=C(c1cn(Cc2ccccc2)c2ccccc12)c1cn(Cc2ccccc2)c2ccccc12 [IX, bis(1-benzyl-1H-indol-3-yl)methanone] | 2.97 ± 0.29 µM |  |  |  |  |  |  |  |  | > 7 fold | 6.68 ± 0.79 µM | 5.27 µM | partially blocked; also recorded: only partial inhibition | 
